Laboratory results as given in ChEMBL document CHEMBL1255286, “In Vitro activity of the new azole isavuconazole (BAL4815) compared with six other antifungal agents against 162 Cryptococcus neoformans isolates from Cuba” (2008).
Converted amounts (≈) assume the structure as drawn.

Columns and labels:
[1] = tested on: Cryptococcus gattii species complex; experiment: Antimicrobial activity against Cryptococcus gattii by broth microdilution method; type: functional, Cryptococcus bacillisporus
Cryptococcus neoformans [2] = experiment: Antimicrobial activity against Cryptococcus neoformans var. grubii obtained from AIDS patient by broth microdilution method; type: functional
Cryptococcus neoformans [3] = experiment: Antimicrobial activity against Cryptococcus neoformans var. grubii by broth microdilution method; type: functional
[4] = tested on: Cryptococcus albidosimilis; experiment: Antimicrobial activity against Cryptococcus albidosimilis by broth microdilution method; type: functional; settings: Naganishia albidosimilis
Naganishia albida = experiment: Antimicrobial activity against Cryptococcus albidus by broth microdilution method; type: functional
Cryptococcus neoformans [5] = experiment: Antimicrobial activity against Cryptococcus neoformans var. grubii obtained from non-AIDS patient by broth microdilution method; type: functional
Cryptococcus neoformans [6] = experiment: Antimicrobial activity against Cryptococcus neoformans var. grubii clinical isolate by broth microdilution method; type: functional

`Nc1nc(=O)[nH]cc1F` [FLUCYTOSINE] showed an MIC50 [1] of 4 µg/mL (≈ 31 µM), an MIC90 [1] of 8 µg/mL (≈ 62 µM) and an MIC50 (Cryptococcus neoformans [2]) of 4 µg/mL (≈ 31 µM). It also gave an MIC90 (Cryptococcus neoformans [2]) of 8 µg/mL (≈ 62 µM), an MIC50 (Cryptococcus neoformans [3]) of 4 µg/mL (≈ 31 µM) and an MIC90 (Cryptococcus neoformans [3]) of 8 µg/mL (≈ 62 µM). It also gave an MIC50 [4] of 4 µg/mL (≈ 31 µM), an MIC90 [4] of 8 µg/mL (≈ 62 µM) and an MIC50 (Naganishia albida) of 4 µg/mL (≈ 31 µM). The MIC90 (Naganishia albida) was 8 µg/mL (≈ 62 µM), the MIC50 (Cryptococcus neoformans [5]) was 2 µg/mL (≈ 15.5 µM) and the MIC90 (Cryptococcus neoformans [5]) was 4 µg/mL (≈ 31 µM). It also gave an MIC50 (Cryptococcus neoformans [6]) of 4 µg/mL (≈ 31 µM) and an MIC90 (Cryptococcus neoformans [6]) of 8 µg/mL (≈ 62 µM).

With `C[C@@H](c1nc(-c2ccc(C#N)cc2)cs1)[C@](O)(Cn1cncn1)c1cc(F)ccc1F` [ISAVUCONAZOLE] the MIC50 [1] was 0.004 µg/mL (≈ 0.00914 µM), the MIC90 [1] was 0.016 µg/mL (≈ 0.0366 µM) and the MIC50 (Cryptococcus neoformans [2]) was 0.008 µg/mL (≈ 0.0183 µM). For the same molecule, the MIC90 (Cryptococcus neoformans [2]) was 0.016 µg/mL (≈ 0.0366 µM), the MIC50 (Cryptococcus neoformans [3]) was 0.004 µg/mL (≈ 0.00914 µM) and the MIC90 (Cryptococcus neoformans [3]) was 0.016 µg/mL (≈ 0.0366 µM). The MIC50 [4] was 0.004 µg/mL (≈ 0.00914 µM), the MIC90 [4] was 0.016 µg/mL (≈ 0.0366 µM) and the MIC50 (Naganishia albida) was 0.004 µg/mL (≈ 0.00914 µM). For the same molecule, the MIC90 (Naganishia albida) was 0.016 µg/mL (≈ 0.0366 µM), the MIC50 (Cryptococcus neoformans [5]) was 0.008 µg/mL (≈ 0.0183 µM) and the MIC90 (Cryptococcus neoformans [5]) was 0.031 µg/mL (≈ 0.0709 µM). The MIC50 (Cryptococcus neoformans [6]) was 0.004 µg/mL (≈ 0.00914 µM) and the MIC90 (Cryptococcus neoformans [6]) was 0.016 µg/mL (≈ 0.0366 µM).

`C[C@@H]1[C@H](O)[C@@H](C)/C=C/C=C/C=C/C=C/C=C/C=C/C=C/[C@H](O[C@@H]2O[C@H](C)[C@@H](O)[C@H](N)[C@@H]2O)C[C@@H]2O[C@](O)(C[C@@H](O)C[C@@H](O)[C@H](O)CC[C@@H](O)C[C@@H](O)CC(=O)O[C@H]1C)C[C@H](O)[C@H]2C(=O)O` [AMPHOTERICIN B] gave an MIC50 [1] of 0.25 µg/mL (≈ 0.271 µM), an MIC90 [1] of 0.5 µg/mL (≈ 0.541 µM) and an MIC50 (Cryptococcus neoformans [2]) of 0.25 µg/mL (≈ 0.271 µM). The MIC90 (Cryptococcus neoformans [2]) was 0.25 µg/mL (≈ 0.271 µM), the MIC50 (Cryptococcus neoformans [3]) was 0.25 µg/mL (≈ 0.271 µM) and the MIC90 (Cryptococcus neoformans [3]) was 0.5 µg/mL (≈ 0.541 µM). It also gave an MIC50 [4] of 0.25 µg/mL (≈ 0.271 µM), an MIC90 [4] of 0.5 µg/mL (≈ 0.541 µM) and an MIC50 (Naganishia albida) of 0.25 µg/mL (≈ 0.271 µM). The MIC90 (Naganishia albida) was 0.5 µg/mL (≈ 0.541 µM), the MIC50 (Cryptococcus neoformans [6]) was 0.25 µg/mL (≈ 0.271 µM) and the MIC90 (Cryptococcus neoformans [6]) was 0.25 µg/mL (≈ 0.271 µM).

`CCC(C)n1ncn(-c2ccc(N3CCN(c4ccc(OCC5COC(Cn6cncn6)(c6ccc(Cl)cc6Cl)O5)cc4)CC3)cc2)c1=O` (stereo not drawn) [ITRACONAZOLE] gave an MIC50 [1] of 0.063 µg/mL (≈ 0.0893 µM), an MIC90 [1] of 0.25 µg/mL (≈ 0.354 µM) and an MIC50 (Cryptococcus neoformans [2]) of 0.031 µg/mL (≈ 0.0439 µM). The MIC90 (Cryptococcus neoformans [2]) was 0.125 µg/mL (≈ 0.177 µM), the MIC50 (Cryptococcus neoformans [3]) was 0.063 µg/mL (≈ 0.0893 µM) and the MIC90 (Cryptococcus neoformans [3]) was 0.25 µg/mL (≈ 0.354 µM). It also gave an MIC50 [4] of 0.063 µg/mL (≈ 0.0893 µM), an MIC90 [4] of 0.25 µg/mL (≈ 0.354 µM) and an MIC50 (Naganishia albida) of 0.063 µg/mL (≈ 0.0893 µM). It also gave an MIC90 (Naganishia albida) of 0.25 µg/mL (≈ 0.354 µM), an MIC50 (Cryptococcus neoformans [5]) of 0.031 µg/mL (≈ 0.0439 µM) and an MIC90 (Cryptococcus neoformans [5]) of 0.063 µg/mL (≈ 0.0893 µM). The MIC50 (Cryptococcus neoformans [6]) was 0.031 µg/mL (≈ 0.0439 µM) and the MIC90 (Cryptococcus neoformans [6]) was 0.25 µg/mL (≈ 0.354 µM).

`CC[C@@H]([C@H](C)O)n1ncn(-c2ccc(N3CCN(c4ccc(OC[C@@H]5CO[C@@](Cn6cncn6)(c6ccc(F)cc6F)C5)cc4)CC3)cc2)c1=O` [POSACONAZOLE] showed an MIC [1] of 0.016 µg/mL (≈ 0.0228 µM), an MIC50 [1] of 0.31 µg/mL (≈ 0.442 µM) and an MIC90 [1] of 0.63 µg/mL (≈ 0.899 µM). For the same molecule, the MIC50 (Cryptococcus neoformans [2]) was 0.031 µg/mL (≈ 0.0442 µM), the MIC90 (Cryptococcus neoformans [2]) was 0.125 µg/mL (≈ 0.178 µM) and the MIC (Cryptococcus neoformans [3]) was 0.016 µg/mL (≈ 0.0228 µM). It also gave an MIC50 (Cryptococcus neoformans [3]) of 0.31 µg/mL (≈ 0.442 µM), an MIC90 (Cryptococcus neoformans [3]) of 0.63 µg/mL (≈ 0.899 µM) and an MIC [4] of 0.016 µg/mL (≈ 0.0228 µM). The MIC50 [4] was 0.31 µg/mL (≈ 0.442 µM), the MIC90 [4] was 0.63 µg/mL (≈ 0.899 µM) and the MIC (Naganishia albida) was 0.016 µg/mL (≈ 0.0228 µM). The MIC50 (Naganishia albida) was 0.31 µg/mL (≈ 0.442 µM), the MIC90 (Naganishia albida) was 0.63 µg/mL (≈ 0.899 µM) and the MIC50 (Cryptococcus neoformans [5]) was 0.063 µg/mL (≈ 0.0899 µM). It also gave an MIC90 (Cryptococcus neoformans [5]) of 0.125 µg/mL (≈ 0.178 µM), an MIC50 (Cryptococcus neoformans [6]) of 0.004 µg/mL (≈ 0.00571 µM) and an MIC90 (Cryptococcus neoformans [6]) of 0.016 µg/mL (≈ 0.0228 µM).

With `OC(Cn1cncn1)(Cn1cncn1)c1ccc(F)cc1F` [FLUCONAZOLE] the MIC50 [1] was 4 µg/mL (≈ 13.1 µM), the MIC90 [1] was 8 µg/mL (≈ 26.1 µM) and the MIC50 (Cryptococcus neoformans [2]) was 2 µg/mL (≈ 6.53 µM). For the same molecule, the MIC90 (Cryptococcus neoformans [2]) was 2 µg/mL (≈ 6.53 µM), the MIC50 (Cryptococcus neoformans [3]) was 4 µg/mL (≈ 13.1 µM) and the MIC90 (Cryptococcus neoformans [3]) was 8 µg/mL (≈ 26.1 µM). For the same molecule, the MIC50 [4] was 4 µg/mL (≈ 13.1 µM), the MIC90 [4] was 8 µg/mL (≈ 26.1 µM) and the MIC50 (Naganishia albida) was 4 µg/mL (≈ 13.1 µM). It also gave an MIC90 (Naganishia albida) of 8 µg/mL (≈ 26.1 µM), an MIC50 (Cryptococcus neoformans [6]) of 2 µg/mL (≈ 6.53 µM) and an MIC90 (Cryptococcus neoformans [6]) of 4 µg/mL (≈ 13.1 µM).

For `C[C@@H](c1ncncc1F)[C@](O)(Cn1cncn1)c1ccc(F)cc1F` [VORICONAZOLE], the MIC50 [1] was 0.063 µg/mL (≈ 0.18 µM), the MIC90 [1] was 0.25 µg/mL (≈ 0.716 µM) and the MIC50 (Cryptococcus neoformans [2]) was 0.031 µg/mL (≈ 0.0887 µM). The MIC90 (Cryptococcus neoformans [2]) was 0.125 µg/mL (≈ 0.358 µM), the MIC50 (Cryptococcus neoformans [3]) was 0.063 µg/mL (≈ 0.18 µM) and the MIC90 (Cryptococcus neoformans [3]) was 0.25 µg/mL (≈ 0.716 µM). It also gave an MIC50 [4] of 0.063 µg/mL (≈ 0.18 µM), an MIC90 [4] of 0.25 µg/mL (≈ 0.716 µM) and an MIC50 (Naganishia albida) of 0.063 µg/mL (≈ 0.18 µM). The MIC90 (Naganishia albida) was 0.25 µg/mL (≈ 0.716 µM), the MIC50 (Cryptococcus neoformans [5]) was 0.063 µg/mL (≈ 0.18 µM) and the MIC90 (Cryptococcus neoformans [5]) was 0.063 µg/mL (≈ 0.18 µM). It also gave an MIC50 (Cryptococcus neoformans [6]) of 0.031 µg/mL (≈ 0.0887 µM) and an MIC90 (Cryptococcus neoformans [6]) of 0.125 µg/mL (≈ 0.358 µM).
